According to US20250025490A1, “INDUCTION OF TRAINED IMMUNITY FOR THE TREATMENT OF HYPERPROLIFERATIVE DISORDERS” (priority 2021, published 2025):

What was measured:
peritoneal macrophages [1] = test: In vitro training and re-stimulation of peritoneal macrophages (Example 2), TNF-α ELISA; assay type: cell-based, mice; conditions: Mdivi-1 10 μM
Method: Isolation and culture of peritoneal macrophages. Mice were euthanized with CO2 inhalation and injected i.p. with 5 ml of sterile cold, complete DMEM medium (Sigma Aldrich) followed by gentle massage of the peritoneum. The peritoneal fluid was then collected, centrifuged at 1600 rpm for 5 min. The cell pellet was washed, counted, and plated at appropriate numbers in complete DMEM. The cells were incubated for 2-4 hours at 37° C. and 5% CO2 to allow peritoneal macrophages attached to the plates. The floating cells were aspirated and plates were gently washed with sterile pre-warmed medium and then added with fresh complete DMEM. For comparison studies between different mouse strains, peritoneal cells were stained with viability dye and anti-F4/80 antibodies (Biolegend) and F4/80^+ macrophages were sorted by FACS Aria III (BD Bioscience).
In vitro training and re-stimulation of peritoneal macrophages. Peritoneal macrophages were treated with 25 μg/ml of WGP or polystyrene beads (3 μm, Sigma-Aldrich) and incubated for 24 h at 37°° C. with 5% CO2. Macrophages were then washed with pre-warmed complete DMEM at least twice to remove excess WGP or polystyrene beads, added with fresh complete DMEM and incubated 6 days. On day 7, macrophages were re-stimulated with different stimuli such as LPS (10 ng/ml) (Sigma), tumor cells, tumor cell culture supernatants (40%) or rMIF (100 ng/ml) (kindly provided by Dr. Robert Mitchell) for 24 h. The culture supernatants were harvested and assayed for TNF-α by ELISA. For cell culture supernatants, tumor cell lines including LLC, B16F10, and EL4, and control cell line MLE-12 were used.
These cell lines were cultured (1 million/4 ml complete DMEM) in a 6-well plate and incubated for 72 h. The supernatants were harvested and stored at −80° C. in aliquots.
ELISA for TNF-α and MIF. TNF-α in the culture supernatants was measured using TNF-α ELISA kit (Biolegend) and MIF levels in the culture supernatants were quantified using mouse MIF ELISAkit (R&D Systems) per the manufacturer's instruction.
In vitro training with S1P. Peritoneal macrophages were stimulated with 200 nM or 300 nM of S1P for 24 h at 37° C. and 5% CO2. The macrophages were then washed and allowed for resting. On day 7, the macrophages were stimulated with LPS (10 ng/ml) or LLC culture supernatant (40%) for 24 h and the supernatants were collected for the quantification of TNF-α using ELISA. For another set of in vitro-training experiment, macrophages were trained with S1P in the presence of Mdivi-1 (10 μM) during S1P training and throughout the resting period. Cells were restimulated with LPS and the supernatants were collected to determine TNF-α levels by ELISA.
[…] The inhibitors were further added to the macrophage cultures and incubated at 37° C. and 5% CO2 for 6 more days. On day 7, the macrophages were washed once with pre-warmed complete DMEM and added LPS (10 ng/ml) or LLC culture supernatant (40%) for re-stimulation.

LLC-GFP tumor cells = test: BMDM training and adoptive transfer, LLC-GFP challenge; assay type: in vivo, mice; conditions: BMDM trained in presence of Mdivi-1
Description: BMDMs were trained in the presence of Mdivi-1 or DMSO. BMDMs (1×10^6) were then adoptively transferred intravenously to WT mice twice 2 days apart. Two days later recipient mice were challenged with LLC-GFP tumor cells. Mice were euthanized at day 21 post tumor challenge to analyze the tumor burden and T cell phenotype in the lungs.
To examine whether ex vivo beta-glucan trained macrophages could be used for adoptive cell therapy, bone marrow-derived macrophages (BMDM) were used for a proof-of-concept study. To this end, BMDM were trained with WGP beta-glucan for 7 days and then adoptively transferred into naïve mice. Recipient mice were then challenged with LLC-GFP tagged lung cancer cells. Mice were euthanized at day 21 (FIG. 15A).

peritoneal macrophages [2] = test: Mitochondrial ROS quantitation (MitoSox Red); assay type: cell-based, mice; conditions: Mdivi-1 50 μM and 75 μM
Method: Mitochondrial ROS quantitation. Peritoneal macrophages were treated with WGP or S1P in the presence or absence of Mdivi-1 and incubated at 37° C. with 5% CO2 for 24 h. The cells were then harvested, washed with PBS and pelleted by centrifugation at 1600 rpm for 5 min at room temperature. The pellets were then stained with MitoSOX Red dye (5 μM) (Invitrogen) at 37° C. for 15 min. The cells were washed with pre-warmed HBSS followed by another wash with PBS at room temperature. The cells were then stained with viability dye and anti-F4/80 and then acquired by flow cytometry. Flow cytometry for p-Drp-1. Peritoneal macrophages were treated with WGP (25 μg/ml) or S1P (1 μM) and incubated at 37° C. with 5% CO2 for 3-4 h. Following the completion of incubation, the cells were quickly washed with cold PBS to stop the activation. The cells were harvested and washed with PBS. The cells were then fixed with 4% formaldehyde for 15 min at room temperature, washed with PBS and permeabilized using ice-cold 100% methanol on ice for a minimum of 10 min. The cells were then stained with primary antibody (p-Drp1) (Cell Signaling) for 1 hour at room temperature followed by secondary antibody (Anti-rabbit IgG) (Biolegend) for 30 min at room temperature as instructed in the Cell Signaling phospho-stain protocol and analyzed using flow cytometry.

peritoneal macrophages [3] = test: Mitochondrial fission, TMRM confocal microscopy; assay type: cell-based, mice; conditions: Mdivi-1 10 μM
Method: Confocal microscopy. Poly-L-Lysine-treated glass coverslips were added to 12 well plates to which appropriate numbers of macrophages were added along with 2 ml of sterile complete DMEM. Cells were trained with WGP alone or in combination with Mdivi-1 (10 μM) for 7 days as previously described. After 7 days of incubation, the media was removed, and the cells were washed with sterile PBS followed by addition of TMRM dye (Tetramethylrhodamine, methyl ester, Sigma) for 20 min. After incubation, the cells were washed with PBS and fixed with 1 ml of 4% formalin at room temperature for 20-30 min. The cells were washed thrice with PBS and the glass slides were removed carefully with the help of forceps and mounted on the slides using mounting reagents and left overnight to dry at room temperature or stored at 4° C. protecting from the light. The slides were then read using a Nikon Confocal microscope. Mitochondrial fragment lengths were measured by counting at least 100 mitochondria per sample using an Image-J software.

COc1cc(-n2c(=S)[nH]c3ccccc3c2=O)c(Cl)cc1Cl [Mdivi-1]
effect on S1P-induced trained immunity (TNF-α) (peritoneal macrophages [1]; LPS): abrogated S1P-induced trained immunity
effect on WGP-mediated trained responses (TNF-α) (peritoneal macrophages [1]; LPS or LLC supernatants): abrogated WGP-mediated trained responses
effect on WGP-trained BMDM-mediated effect (LLC-GFP tumor cells): completely abrogated WGP-trained BDMD-mediated effect
effect on WGP-mediated mtROS production (peritoneal macrophages [2]): abrogated WGP-mediated mtROS production
effect on WGP-induced mitochondrial fragmentation (peritoneal macrophages [3]): abrogated WGP-induced mitochondrial fragmentation
